Results on 30 molecules are retold here after patent US20200101068A1, “Heteroaryl Derivatives as PARP Inhibitors” (Lupin Limited, priority 2015, published 2020).

T1 sequence (P09874 whole entry): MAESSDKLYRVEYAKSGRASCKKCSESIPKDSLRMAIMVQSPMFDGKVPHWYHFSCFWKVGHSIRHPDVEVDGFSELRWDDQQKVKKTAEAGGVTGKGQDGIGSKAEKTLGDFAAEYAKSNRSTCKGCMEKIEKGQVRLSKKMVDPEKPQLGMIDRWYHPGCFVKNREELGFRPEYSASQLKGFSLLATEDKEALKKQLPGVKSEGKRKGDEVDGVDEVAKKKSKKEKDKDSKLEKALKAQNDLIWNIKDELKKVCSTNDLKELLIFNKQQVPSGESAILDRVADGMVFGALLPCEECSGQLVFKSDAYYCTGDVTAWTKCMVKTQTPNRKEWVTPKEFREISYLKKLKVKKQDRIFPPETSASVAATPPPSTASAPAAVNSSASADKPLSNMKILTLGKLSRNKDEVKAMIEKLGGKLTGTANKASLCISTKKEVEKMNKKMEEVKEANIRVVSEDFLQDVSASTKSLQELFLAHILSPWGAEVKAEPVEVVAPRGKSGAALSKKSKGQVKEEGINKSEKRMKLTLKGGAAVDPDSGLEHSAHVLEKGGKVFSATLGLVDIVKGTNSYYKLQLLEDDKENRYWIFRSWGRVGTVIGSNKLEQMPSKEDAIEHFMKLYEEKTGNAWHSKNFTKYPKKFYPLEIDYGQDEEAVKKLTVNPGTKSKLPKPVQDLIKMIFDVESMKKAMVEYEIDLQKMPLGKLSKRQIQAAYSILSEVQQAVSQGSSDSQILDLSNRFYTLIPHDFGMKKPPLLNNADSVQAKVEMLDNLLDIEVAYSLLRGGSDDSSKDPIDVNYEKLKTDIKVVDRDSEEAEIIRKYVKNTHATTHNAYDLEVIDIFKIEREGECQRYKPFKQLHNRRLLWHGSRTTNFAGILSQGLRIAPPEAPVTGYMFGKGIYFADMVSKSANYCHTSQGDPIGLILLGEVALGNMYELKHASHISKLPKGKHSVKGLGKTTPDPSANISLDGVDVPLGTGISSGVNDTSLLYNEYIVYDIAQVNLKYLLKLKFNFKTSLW

This assay has as its target T1, PARP1 (Homo sapiens, UniProt P09874).
T1 construct: purchased BPS Bioscience
Kind of assay: PARP1 biochemical assay (BPS Bioscience kit, chemiluminescent). Particulars: histone-coated plate, biotinylated NAD+, 60 min at 25° C., luminescence; read-out: PARP 1 inhibition IC50. The method, then:
Example 16: PARP1 Biochemical Assay
The assay was performed using BPS Bioscience kit. The 96-well strip plate was coated with 50 μl of histone mixture and incubated at 4° C. overnight. The next day, the wells were blocked by adding 100 μl of blocking buffer. The plate was washed and 25 μl of appropriate concentration of PARP1 (25-75 ng/well) was added in all of the Test and Positive control wells. In the Negative control wells, the enzyme was replaced with 25 μl of water. 5 μl each of 10× PARP assay buffer and activated DNA was added in all the wells (Test, Positive and Negative control wells). 10× concentration of the test compounds were prepared and 5 μl test compounds were added to the respective wells. The reaction volume was made up to 45 μl by adding water to all of the wells. 5 μl of 10× PARP assay mixture containing biotinilated NAD^+ was added in each well and the plate was incubated at ambient temperature (25° C.) for 60 min. After washing the plate 50 μl of Streptavidin-HRP was added in each well, the plate was incubated at RT for 30 min. The plate was washed and the luminescence was read in PHERAStar plate reader after adding 100 μl of chemiluminescent substrate.
PARP inhibition was calculated using the following formula:
% PARP inhibition=100−[(RLU test compound treated sample−RLU negative control)/(RLU Positive control−RLU negative control)×100]
IC50 values were calculated by plotting % inhibition against the respective concentrations of test compounds using GraphPad Prism 5.
As to `N#Cc1ccc(N2CCN([C@H]3C=C(c4[nH]c(=O)c5cccnc5c4[N+](=O)[O-])CC3)CC2)cc1` [Compound 8, (R)-4-(4-(3-(8-nitro-5-oxo-5,6-dihydro-1,6-naphthyridin-7-yl)cyclopent-2-en-1-yl)piperazin-1-yl)benzonitrile], the IC50 (as a rule, the concentration that gives 50% inhibition) lay within 0.5 to 5 nM.

Consider `O=c1[nH]c(C2=C[C@H](N3CCN(c4ccccc4)CC3)CC2)cc2sccc12` [Compound 48, (R)-6-(3-(4-phenylpiperazin-1-yl)cyclopent-1-en-1-yl)thieno[3,2-c]pyridin-4(5H)-one], for which the IC50 was 0.5 to 5 nM.

On to `NC(=O)c1ccc(N2CCN([C@H]3C=C(c4cc5ncccc5c(=O)[nH]4)CC3)CC2)cc1` [Compound 19, (R)-4-(4-(3-(5-oxo-5,6-dihydro-1,6-naphthyridin-7-yl)cyclopent-2-en-1-yl)piperazin-1-yl)benzamide], for which the IC50 lay within 0.5 to 5 nM.

For `N#Cc1ccc(N2CCN([C@@H]3CC[C@@H](c4cc5ncccc5c(=O)[nH]4)C3)CC2)cc1` (single isomer, unassigned) [Compound 12], the IC50 was 5.1 to 50 nM.

Consider `N#Cc1ccc(N2CCN([C@@H]3C=C(c4cc5ncccc5c(=O)[nH]4)CC3)CC2)cc1` [Compound 4, (S)-4-(4-(3-(5-oxo-5,6-dihydro-1,6-naphthyridin-7-yl)cyclopent-2-en-1-yl)piperazin-1-yl)benzonitrile], for which the IC50 was 5.1 to 50 nM.

In the case of `Cc1ccc2c(=O)[nH]c(C3=C[C@H](N4CCN(c5ccc(C#N)cc5)CC4)CC3)cc2n1` [Compound 6, (R)-4-(4-(3-(2-methyl-5-oxo-5,6-dihydro-1,6-naphthyridin-7-yl)cyclopent-2-en-1-yl)piperazin-1-yl)benzonitrile], the IC50 is 0.5 to 5 nM.

Turning to `N#Cc1ccc(N2CCN([C@H]3C=C(c4cc5nccnc5c(=O)[nH]4)CC3)CC2)cc1` [Compound 41, (R)-4-(4-(3-(5-oxo-5,6-dihydropyrido[3,4-b]pyrazin-7-yl)cyclopent-2-en-1-yl)piperazin-1-yl)benzonitrile], the IC50 was 5.1 to 50 nM.

Take `N#Cc1ccc(N2CCN([C@H]3C=C(c4cc5cnccc5c(=O)[nH]4)CC3)CC2)cc1` [Compound 36, (R)-4-(4-(3-(1-oxo-1,2-dihydro-2,6-naphthyridin-3-yl)cyclopent-2-en-1-yl)piperazin-1-yl)benzonitrile]: the IC50 was 0.5 to 5 nM.

For the molecule `Cc1c(C2=C[C@@H](N3CCN(c4ccc(C#N)cc4)CC3)CC2)[nH]c(=O)c2cccnc12` [Compound 10, (S)-4-(4-(3-(8-methyl-5-oxo-5,6-dihydro-1,6-naphthyridin-7-yl)cyclopent-2-en-1-yl)piperazin-1-yl)benzonitrile], the IC50 lay within 0.5 to 5 nM.

Take `O=c1[nH]c(C2=C[C@H](N3CCN(c4ccc(F)cc4F)CC3)CC2)cc2ncccc12` [Compound 39, (R)-7-(3-(4-(2,4-difluorophenyl)piperazin-1-yl)cyclopent-1-en-1-yl)-1,6-naphthyridin-5(6H)-one]: the IC50 is 0.5 to 5 nM.

For the molecule `N#Cc1ccc(N2CCN([C@H]3C=C(c4cc5sccc5c(=O)[nH]4)CC3)CC2)cc1` [Compound 42, (R)-4-(4-(3-(4-oxo-4,5-dihydrothieno[3,2-c]pyridin-6-yl)cyclopent-2-en-1-yl)piperazin-1-yl)benzonitrile], the IC50 is 0.5 to 5 nM.

Consider `N#Cc1ccc(N2CCN([C@H]3C=C(c4cc5ncccc5c(=O)[nH]4)CC3)CC2)c(F)c1` [Compound 23, (R)-3-fluoro-4-(4-(3-(5-oxo-5,6-dihydro-1,6-naphthyridin-7-yl)cyclopent-2-en-1-yl)piperazin-1-yl)benzonitrile], for which the IC50 was 0.5 to 5 nM.

As for `N#Cc1ccc(N2CCN([C@H]3C=C(c4cn5cccc5c(=O)[nH]4)CC3)CC2)cc1` [Compound 56, (R)-4-(4-(3-(1-oxo-1,2-dihydropyrrolo[1,2-a]pyrazin-3-yl)cyclopent-2-en-1-yl)piperazin-1-yl)benzonitrile], the IC50 was in the range of 0.5 to 5 nM.

Consider `N#Cc1ccc(N2C[C@@H]3C[C@H]2CN3C2C=C(c3cc4ncccc4c(=O)[nH]3)CC2)cc1` (single isomer, unassigned) [Compound 16], for which the IC50 lay in the range of 5.1 to 50 nM.

For the molecule `C[C@@H]1CN(c2ccc(C#N)cc2)CCN1[C@@H]1C=C(c2cc3ncccc3c(=O)[nH]2)CC1` (racemic) [Compound 15, 4-((R)-3-methyl-4-((S/R)-3-(5-oxo-5,6-dihydro-1,6-naphthyridin-7-yl)cyclopent-2-en-1-yl)piperazin-1-yl)benzonitrile], the IC50 was 5.1 to 50 nM.

In the case of `N#Cc1ccc(N2CCN([C@H]3C=C(c4cc5ccncc5c(=O)[nH]4)CC3)CC2)cc1` [Compound 38, (R)-4-(4-(3-(1-oxo-1,2-dihydro-2,7-naphthyridin-3-yl)cyclopent-2-en-1-yl)piperazin-1-yl)benzonitrile], the IC50 was 0.5 to 5 nM.

Turning to `O=c1[nH]c(C2=C[C@H](N3CCN(c4ccc(F)cc4)CC3)CC2)cc2sccc12` [Compound 47, (R)-6-(3-(4-(4-fluorophenyl)piperazin-1-yl)cyclopent-1-en-1-yl)thieno[3,2-c]pyridin-4(5H)-one], the IC50 is 0.5 to 5 nM.

In the case of `O=c1[nH]c(C2=C[C@H](N3CCN(c4ccc(F)cc4)CC3)CC2)cc2ncccc12` [Compound 22, (R)-7-(3-(4-(4-fluorophenyl)piperazin-1-yl)cyclopent-1-en-1-yl)-1,6-naphthyridin-5(6H)-one], the IC50 fell in the range of 0.5 to 5 nM.

In the case of `N#Cc1ccc(N2CCN([C@H]3C=C(c4cc5ncc(N)cc5c(=O)[nH]4)CC3)CC2)cc1` [Compound 7, (R)-4-(4-(3-(3-amino-5-oxo-5,6-dihydro-1,6-naphthyridin-7-yl)cyclopent-2-en-1-yl)piperazin-1-yl)benzonitrile], the IC50 was 0.5 to 5 nM.

As for `N#Cc1ccc(N2CCN([C@H]3C=C(c4cc5cccnc5c(=O)[nH]4)CC3)CC2)cc1` [Compound 37, (R)-4-(4-(3-(8-oxo-7,8-dihydro-1,7-naphthyridin-6-yl)cyclopent-2-en-1-yl)piperazin-1-yl)benzonitrile], the IC50 lay in the range of 0.5 to 5 nM.

Turning to `N#Cc1ccc(N2CCN([C@H]3C=C(c4cc5ncc(F)cc5c(=O)[nH]4)CC3)CC2)cc1` [Compound 2, (R)-4-(4-(3-(3-fluoro-5-oxo-5,6-dihydro-1,6-naphthyridin-7-yl)cyclopent-2-en-1-yl)piperazin-1-yl)benzonitrile], the IC50 lay in the range of 0.5 to 5 nM.

In the case of `N#Cc1ccc(N2CCN([C@H]3C=C(c4cc5ncsc5c(=O)[nH]4)CC3)CC2)c(F)c1` [Compound 52, (R)-3-fluoro-4-(4-(3-(4-oxo-4,5-dihydrothiazolo[5,4-c]pyridin-6-yl)cyclopent-2-en-1-yl)piperazin-1-yl)benzonitrile], the IC50 lay within 0.5 to 5 nM.

In the case of `O=C1CCc2cc(N3CCN([C@H]4C=C(c5cc6ncccc6c(=O)[nH]5)CC4)CC3)ccc21` [Compound 29, (R)-7-(3-(4-(1-oxo-2,3-dihydro-1H-inden-5-yl)piperazin-1-yl)cyclopent-1-en-1-yl)-1,6-naphthyridin-5(6H)-one], the IC50 lay within 0.5 to 5 nM.

As for `O=c1[nH]c(C2=C[C@H](N3CCN(c4ccc(C(F)(F)F)cc4)CC3)CC2)cc2ncccc12` [Compound 33, (R)-7-(3-(4-(4-(trifluoromethyl)phenyl)piperazin-1-yl)cyclopent-1-en-1-yl)-1,6-naphthyridin-5(6H)-one], the IC50 was in the range of 5.1 to 50 nM.

On to `CNC(=O)c1ccc(N2CCN([C@H]3C=C(c4cc5ncccc5c(=O)[nH]4)CC3)CC2)cc1` [Compound 18, (R)—N-methyl-4-(4-(3-(5-oxo-5,6-dihydro-1,6-naphthyridin-7-yl)cyclopent-2-en-1-yl)piperazin-1-yl)benzamide], for which the IC50 was 0.5 to 5 nM.

In the case of `N#Cc1ccc(N2CCN([C@H]3C=C(c4cc5scnc5c(=O)[nH]4)CC3)CC2)cc1` [Compound 44, (R)-4-(4-(3-(4-oxo-4,5-dihydrothiazolo[4,5-c]pyridin-6-yl)cyclopent-2-en-1-yl)piperazin-1-yl)benzonitrile], the IC50 lay in the range of 0.5 to 5 nM.

On to `CC(=O)c1ccc(N2CCN([C@H]3C=C(c4cc5ncccc5c(=O)[nH]4)CC3)CC2)cc1` [Compound 28, (R)-7-(3-(4-(4-acetylphenyl)piperazin-1-yl)cyclopent-1-en-1-yl)-1,6-naphthyridin-5(6H)-one], for which the IC50 fell in the range of 0.5 to 5 nM.

As for `N#Cc1ccc(N2CCN([C@H]3C=C(c4cc5sccc5c(=O)[nH]4)CC3)CC2)nc1` [Compound 50, (R)-6-(4-(3-(4-oxo-4,5-dihydrothieno[3,2-c]pyridin-6-yl)cyclopent-2-en-1-yl)piperazin-1-yl)nicotinonitrile], the IC50 lay in the range of 0.5 to 5 nM.

For the molecule `N#Cc1ccc(N2CCN([C@H]3C=C(c4cc5ncncc5c(=O)[nH]4)CC3)CC2)cc1` [Compound 40, (R)-4-(4-(3-(5-oxo-5,6-dihydropyrido[4,3-d]pyrimidin-7-yl)cyclopent-2-en-1-yl)piperazin-1-yl)benzonitrile], the IC50 lay within 0.5 to 5 nM.

With `N#Cc1ccc(N2CCN([C@@H]3C=C(c4cc5sccc5c(=O)[nH]4)CC3)CC2)cc1` [Compound 45, (S)-4-(4-(3-(4-oxo-4,5-dihydrothieno[3,2-c]pyridin-6-yl)cyclopent-2-en-1-yl)piperazin-1-yl)benzonitrile], the IC50 lay within 5.1 to 50 nM.
